Measured values taken from the supplement of paper PMC6045584.
± gives the standard deviation of the averaged measurements.

How the values were obtained:
[1] = compound: C[C@@H](Oc1cc(-c2cnn(C3CCNCC3)c2)cnc1N)c1c(Cl)ccc(F)c1Cl [CRIZOTINIB]; experiment: surviving fraction relative to DMSO-only wells; higher = less growth inhibition; conditions: exposure time: 5 days
In short: (§1)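 Each tumour cell line was screened three times, and only lines with replicate Pearson r >0.7 and median Z' >0.3 were kept. Cells in log phase were seeded at 250–500 per well in 384-well plates, left 24 hours, then exposed continuously for five days to inhibitors at 0.5, 1, 5, 10, 50, 100, 500 and 1000 nM. Viability was read as CellTiter-Glo luminescence, with surviving fraction normalised to the median of DMSO-only wells.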

[2] = compound: CNCc1ccc(-c2[nH]c3cc(F)cc4c3c2CCNC4=O)cc1; experiment: as above; conditions: exposure time: 5 days
In short: as §1

Test System	surviving fraction ([1]; 0.5 nM)	surviving fraction ([1]; 1 nM)	surviving fraction ([1]; 5 nM)	surviving fraction ([1]; 10 nM)	surviving fraction ([1]; 50 nM)	surviving fraction ([1]; 100 nM)	surviving fraction ([1]; 500 nM)	surviving fraction ([1]; 1000 nM)	surviving fraction ([2]; 0.5 nM)	surviving fraction ([2]; 1 nM)	surviving fraction ([2]; 5 nM)	surviving fraction ([2]; 10 nM)	surviving fraction ([2]; 50 nM)	surviving fraction ([2]; 100 nM)	surviving fraction ([2]; 500 nM)	surviving fraction ([2]; 1000 nM)
SUM149.B1*.S BREAST	1.12 ± 0.043	1.19 ± 0.041	1.15 ± 0.052	1.14 ± 0.067	1.13 ± 0.058	1.18 ± 0.059	1.11 ± 0.029	1.03 ± 0.047	1.12 ± 0.023	1.1 ± 0.022	1.07 ± 0.045	1.1 ± 0.045	1.01 ± 0.04	1.02 ± 0.033	0.94 ± 0.053	1 ± 0.056
SUM159 BREAST	1.11 ± 0.03	1.12 ± 0.056	1.12 ± 0.039	1.11 ± 0.022	1.09 ± 0.011	1.103 ± 0.004	1.11 ± 0.013		1.09 ± 0.024	1.1 ± 0.027	1.09 ± 0.035	1.07 ± 0.02	1.06 ± 0.044	1.04 ± 0.0053	1.06 ± 0.019	1.05 ± 0.018
SYO1 SYNOVIAL	0.967 ± 0.015	1.03 ± 0.029	0.953 ± 0.094	1 ± 0.028	0.978 ± 0.042	0.891 ± 0.018	0.399 ± 0.03	0.169 ± 0.008	0.954 ± 0.081	0.921 ± 0.022	0.842 ± 0.014	0.8 ± 0.019	0.655 ± 0.029	0.587 ± 0.032	0.455 ± 0.037	0.351 ± 0.04
T47D BREAST	1.07 ± 0.024	1.08 ± 0.079	1.1 ± 0.043	1.08 ± 0.03	1.07 ± 0.045	1.099 ± 0.0093	1.03 ± 0.038	0.93 ± 0.041	0.999 ± 0.015	1.04 ± 0.019	1.04 ± 0.021	0.999 ± 0.019	0.969 ± 0.033	0.954 ± 0.046	0.911 ± 0.0085	0.943 ± 0.023
U2OS BONE	1.02 ± 0.026	1.05 ± 0.033	1.03 ± 0.042	1.05 ± 0.029		1.05 ± 0.013	0.539 ± 0.023	0.459 ± 0.033	1 ± 0.016	1.01 ± 0.051	1.03 ± 0.036	1.06 ± 0.031	0.961 ± 0.011	0.926 ± 0.037	0.883 ± 0.013	0.774 ± 0.052
VCAP PROSTATE	1.09 ± 0.13	0.987 ± 0.1	1.13 ± 0.2	1.09 ± 0.02	1.02 ± 0.15		0.504 ± 0.013	0.36 ± 0.04	1.01 ± 0.11	1.04 ± 0.14	1.06 ± 0.21	1.04 ± 0.052	0.921 ± 0.12	1.02 ± 0.07	0.881 ± 0.15	0.908 ± 0.092
VP229 BREAST		1.23 ± 0.082	1.06 ± 0.018	1.23 ± 0.059	1.14 ± 0.048	1.15 ± 0.14	1.03 ± 0.15	0.686 ± 0.14	1.15 ± 0.18	1.01 ± 0.14	1.04 ± 0.058	1.01 ± 0.12	0.954 ± 0.042	0.848 ± 0.076	0.823 ± 0.05	0.917 ± 0.067
YAMATO SYNOVIAL	1.13 ± 0.056	1.1 ± 0.15	1.2 ± 0.14	1.1 ± 0.1	0.563 ± 0.036	0.324 ± 0.031	0.221 ± 0.021	0.269 ± 0.021	1.32 ± 0.043	1.35 ± 0.12	1.28 ± 0.066	1.3 ± 0.1	0.949 ± 0.13	0.982 ± 0.11	0.794 ± 0.022	0.811 ± 0.13
ZR751 BREAST		1.07 ± 0.14	0.926 ± 0.024		1.07 ± 0.1		0.818 ± 0.095	0.747 ± 0.07	0.991 ± 0.15	0.962 ± 0.049	0.981 ± 0.075	1.1 ± 0.11	0.873 ± 0.056	0.903 ± 0.075	0.823 ± 0.037	0.709 ± 0.12
